# “Also recorded” adds a separate entry of the source. Where two headings read alike, the source gives them in different places.
# Assays:
# [1] = Plasma pharmacokinetics after single oral doses of RTI-336 in healthy males; type: in vivo, human; settings: for half-life / AUC(0-inf) / Cmax / Tmax: male, human, plasma; for half-life: po
# Protocol: (§1) RTI-336-001 was a single-center, double-blind, placebo-controlled, and randomized clinical trial to evaluate the safety, tolerability, and PK of single, escalating oral doses of RTI-336 (0.3, 1, 3, 6, 12, and 20 mg) in 2 cohorts (lowest 3 doses and highest 3 doses) of healthy male participants. RTI-336 and placebo capsules were identical in appearance, and participants, care providers, and those assessing outcomes were blinded to study drug assignment. Each cohort was to be enrolled in 2 groups of 5 participants (randomized 4:1 drug:placebo independently at each dose); the second group was dosed 24 h after the first group, following a safety review of the first group. Each participant would receive up to 3 single, escalating oral doses (in periods 1, 2, and 3) of study drug under fasting conditions, with a minimum of 10 days between doses, and could only participate in one cohort. The number of participants is typical for first-in-man safety and PK studies, and the trial ran to completion.
# Blood samples were obtained at 0.25, 0.5, 1, 1.5, 2, 3, 4, 6, 8, 12, 16, 24, 30, 36, and 48 h post-dose. Cumulative urine specimens were collected over the intervals 0–6, 6–12, 12–24, 24–36, and 36–48 h post-dose.
# [2] = test system: healthy male participants; assay: Safety and tolerability of single, escalating oral doses (trial RTI-336-001); type: in vivo, human; settings: for serum total bilirubin elevation: day 3 post-dose
# Protocol: as §1
# Orthostatic vital signs (HR, systolic and diastolic blood pressure, and respiratory rate) were obtained pre-dose and at 1, 2, 4, 8, 12, 24, and 48 h post-dose. Body weight was measured at screening, on admissions to the clinic for dosing, and at 7 days following their final dose. Physical examinations of all major organ systems (including neurological examination) were performed at admission and at 48 h post-dose. Adverse events (AEs) were monitored from dosing until 8 days post-dose or resolution, whichever was longer.
# Six-lead ECG telemetry was monitored from 15 min pre-dose until 8 h post-dose. Supine 12-lead ECGs were obtained pre-dose and at 1, 2, 4, 8, 12, 24, and 48 h post-dose.
# Urine for urinalysis (bacteria, bilirubin, blood, glucose, ketones, leukocyte esterase, nitrite, pH, protein, red blood cells, specific gravity, urobilinogen, and WBC) was collected pre-dose and 48 h post-dose. Unfasted blood samples for chemistry (including troponin, albumin, alkaline phosphatase, ALT, AST, BUN, calcium, chloride, CK, creatinine, GGT, globulin, glucose, LDH, phosphorus, potassium, sodium, total bilirubin, total cholesterol, total protein, triglycerides, and uric acid) and hematology (basophils, eosinophils, Hct, Hgb, lymphocytes, RBC indices, monocytes, neutrophils, platelets, RBC, and WBC) were obtained on admission and fasted samples at 48 h post-dose.
# The Mini Mental Status Examination (MMSE) ([Folstein et al., 1975]; [Malloy et al., 1997]) was performed on admission to the clinic and at 4 and 8 h post-dose.
# dopamine reuptake = dopamine reuptake (Homo sapiens, UniProt Q01959); assay: Inhibition of dopamine reuptake; type: biochemical
# rat = test system: rat; design: method as in Carroll et al., 2006a,b; Carroll, 2007; Howell et al., 2007; settings: rat model, ref Carroll et al., 2006a,b, 2007, Howell et al.; cited from earlier work
# rhesus monkey = test system: rhesus monkey; design: method as in Carroll et al., 2006a,b; Carroll, 2007; Howell et al., 2007; settings: rhesus monkey model, ref Carroll et al., 2006a,b, 2007, Howell et al.; cited from earlier work
# rats [3] = settings: rats co-administered RTI-336 with cocaine, ref data on file; cited from earlier work
# [4] = co-administration with ethanol, ref data on file, RTI, cited from earlier work
# [5] = co-administration with morphine; ref data on file, RTI; cited from earlier work
# rats [6] = settings: acute and reversible with reduced dosing, preclinical toxicology; cited from earlier work
# monkeys [7] = settings: acute and reversible with reduced dosing, preclinical toxicology; cited from earlier work
# dog = settings: 3 mg/kg, 22 h after the dose, preclinical toxicology; cited from earlier work
# mice [8] = settings: up to 75 mg/kg, preclinical toxicology; cited from earlier work
# [9] = preclinical toxicology; cited from earlier work
# monkeys [10] = settings: 9 mg/kg/day, 14-day; cited from earlier work
# mice [11] = assay: Preclinical toxicology, seizures in mice
# [12] = single oral dose 1 mg, fasted, healthy males
# [13] = single oral dose 3 mg, fasted, healthy males
# [14] = single oral dose 6 mg, fasted, healthy males
# [15] = single oral dose 12 mg, fasted, healthy males
# [16] = single oral dose 20 mg, fasted, healthy males
# [17] = humans, single oral doses up to 20 mg
# dopamine reuptake, sequence (Q01959 whole entry): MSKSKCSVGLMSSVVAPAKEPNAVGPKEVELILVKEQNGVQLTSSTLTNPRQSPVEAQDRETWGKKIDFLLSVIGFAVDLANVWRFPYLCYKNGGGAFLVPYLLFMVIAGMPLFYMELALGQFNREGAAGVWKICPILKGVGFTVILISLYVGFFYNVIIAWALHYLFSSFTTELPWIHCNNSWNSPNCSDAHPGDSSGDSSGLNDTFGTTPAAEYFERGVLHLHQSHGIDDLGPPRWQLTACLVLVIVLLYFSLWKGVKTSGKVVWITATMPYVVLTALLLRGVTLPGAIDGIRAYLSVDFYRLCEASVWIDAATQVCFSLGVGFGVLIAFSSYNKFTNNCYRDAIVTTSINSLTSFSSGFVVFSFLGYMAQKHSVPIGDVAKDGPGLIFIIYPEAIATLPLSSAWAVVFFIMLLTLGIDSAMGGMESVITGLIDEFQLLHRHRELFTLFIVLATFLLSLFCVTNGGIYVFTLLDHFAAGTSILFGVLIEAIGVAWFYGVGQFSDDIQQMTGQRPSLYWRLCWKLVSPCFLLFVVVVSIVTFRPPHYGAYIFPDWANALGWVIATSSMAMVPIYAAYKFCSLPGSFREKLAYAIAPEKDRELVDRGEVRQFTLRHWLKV
structure (smiles),measurement,setting,value
Cc1ccc(-c2cc([C@@H]3C4CCC(C[C@@H]3c3ccc(Cl)cc3)N4C)on2)cc1 (some centres unmarked) [RTI-336],dose proportionality of plasma drug exposure (AUC0-inf) and Cmax,[1]; 1-20 mg single oral dose range,increased in proportion to dose; also recorded: increased dose proportionally
same,time of peak plasma RTI-336 concentration,"[1]; across 1-20 mg single oral dose levels, fasted",around 4 h
same,half-life,"[1]; 1 mg, single oral dose 1 mg, fasted, healthy males, read-out: t1/2 (converted)",5.44 h
same,half-life,"[1]; 3 mg, single oral dose 3 mg, fasted, healthy males, read-out: t1/2 (converted)",7.07 h
same,half-life,"[1]; 6 mg, single oral dose 6 mg, fasted, healthy males, read-out: t1/2 (converted)",17.9 h
same,half-life,"[1]; 12 mg, single oral dose 12 mg, fasted, healthy males, read-out: t1/2 (converted)",15.3 h
same,half-life,"[1]; 20 mg, across 6, 12 and 20 mg single oral doses, read-out: plasma half-life (converted)",~17 h
same,half-life,"[1]; 20 mg, single oral dose 20 mg, fasted, healthy males, read-out: t1/2 (converted)",18 h
same,AUC(0-inf),[1]; [12],3.8 ng·h/mL
same,Cmax,[1]; [12],0.375 ng/mL
same,Tmax,[1]; [12],4.5 h
same,AUC(0-inf),[1]; [13],12.3 ng·h/mL
same,Cmax,[1]; [13],1.04 ng/mL
same,Tmax,[1]; [13],3.71 h
same,AUC(0-inf),[1]; [14],40.4 ng·h/mL
same,Cmax,[1]; [14],3.26 ng/mL
same,Tmax,[1]; [14],4.38 h
same,AUC(0-inf),[1]; [15],63.1 ng·h/mL
same,Cmax,[1]; [15],5.23 ng/mL
same,Tmax,[1]; [15],3.67 h
same,AUC(0-inf),[1]; [16],115 ng·h/mL
same,Cmax,[1]; [16],10.3 ng/mL
same,Tmax,[1]; [16],3.43 h
same,serum total bilirubin elevation,"[2]; 2 participants, transient and mild, resolved by day 8",< 1.5 × ULN
same,effects on the MMSE,[2]; 4 and 8 h post-dose,No effects were observed
same,participants with AEs,[2]; cumulative dose 6 mg or greater,4 of 11
same,participants with AEs,[2]; cumulative doses less than 6 mg,3 of 10
same,ECG abnormalities,[2]; [17],no ECG abnormalities
same,"behavioral stimulation (hyperactivity, stereotypic behavior)",[2]; [17],no such behavioral stimulation
same,Adverse events,"[2]; participant S031, cohort 1, period 2, 1 mg",Body temperature decreased
same,Adverse events,"[2]; participant S031, cohort 1, period 3, 3 mg, cumulative 4 mg","Body temperature decreased, chalazion"
same,Adverse events,"[2]; participant S038, cohort 1, following 3 mg, cumulative 3.3 mg, possibly related to study drug",Somnolence^b
same,serum total bilirubin elevation,"[2]; participant S046, 1 mg",1.08 × ULN
same,total bilirubin,"[2]; participant S046, 1 mg, day 3 post-dose (ULN 20.5; 13.68 pre-dose, 8.55 day 8)",22.23
same,serum total bilirubin elevation,"[2]; participant S046, 3 mg",1.001 × ULN
same,total bilirubin,"[2]; participant S046, 3 mg, day 3 post-dose (6.84 pre-dose, 5.13 day 8)",20.52
same,Adverse events,"[2]; participant S059, cohort 2, 6 mg",Soft tissue inflammation
same,serum total bilirubin elevation,"[2]; participant S069, 6 mg",1.25 × ULN
same,total bilirubin,"[2]; participant S069, 6 mg, day 3 post-dose (10.26 pre-dose, 10.26 day 8)",25.65
same,Adverse events,"[2]; participant S069, cohort 2, 6 mg, related to their activities, not to study drug",Blood creatine phosphokinase increased
same,Adverse events,"[2]; participant S078, cohort 2, 6, 12, 20 mg, cumulative 38 mg","Nasal congestion, pharyngolaryngeal pain"
same,"effects on other chemistry or hematology, urinalysis, vital sign, or ECG results",[2]; single oral doses 0.3-20 mg,No systematic RTI-336 effects were observed
same,tolerability,"[2]; single oral doses 0.3-20 mg, healthy males",well-tolerated up to the maximum evaluated dose of 20 mg; also recorded: well-tolerated at single doses of up to 20 mg; also recorded: free of significant side effects or toxicity
same,maximum tolerated dose,[2]; single oral doses up to 20 mg,not identified
same,IC50,dopamine reuptake,23 nM
same,cocaine self-administration,rat,suppresses cocaine self-administration
same,cocaine self-administration,rhesus monkey,suppresses cocaine self-administration
same,effect on acute toxicity of cocaine,rats [3],no potentiation of the acute toxicity of cocaine
same,effect on ethanol-related mortality,[4],did not increase ethanol-related mortality
same,effect on ethanol-induced incoordination,[4]; rota-rod performance,reduced ethanol-induced incoordination
same,effect on morphine-related analgesia,[5],did not affect morphine-related analgesia
same,effect on weight loss,[5],did increase weight loss
same,central nervous system adverse effects,rats [6],central nervous system stimulation with hyperactivity and stereotypic behavior
same,central nervous system adverse effects,monkeys [7],central nervous system stimulation with hyperactivity and stereotypic behavior
same,seizures,dog,observed only in one dog
same,seizures,mice [8],did not occur
same,cardiovascular effects,[9],low potential for prolonging QTc interval
same,hepatotoxicity,monkeys [10],increased ALT activity and/or bilirubin and mild-to-moderate diffuse or centrilobular vacuolar degeneration in hepatocytes
same,highest seizure-free dose (75 mg/kg) relative to oral ED50 for spontaneous locomotor activity,mice [11],7.5 fold
